Assay results as given in ChEMBL document CHEMBL1909046, “DrugMatrix in vitro pharmacology data”.
pIC50, pKi: −log10 of the molar value.

Assays:
[1] = biological target: T1, Alpha-1D adrenergic receptor (Homo sapiens, UniProt P25100); type: cell membranes, HEK293, Membrane; settings: for IC50 / Ki: hek293; for all read-outs here: in other assays of this panel Not Active means under 50% inhibition at 10 µM
T1 sequence (P25100 whole entry): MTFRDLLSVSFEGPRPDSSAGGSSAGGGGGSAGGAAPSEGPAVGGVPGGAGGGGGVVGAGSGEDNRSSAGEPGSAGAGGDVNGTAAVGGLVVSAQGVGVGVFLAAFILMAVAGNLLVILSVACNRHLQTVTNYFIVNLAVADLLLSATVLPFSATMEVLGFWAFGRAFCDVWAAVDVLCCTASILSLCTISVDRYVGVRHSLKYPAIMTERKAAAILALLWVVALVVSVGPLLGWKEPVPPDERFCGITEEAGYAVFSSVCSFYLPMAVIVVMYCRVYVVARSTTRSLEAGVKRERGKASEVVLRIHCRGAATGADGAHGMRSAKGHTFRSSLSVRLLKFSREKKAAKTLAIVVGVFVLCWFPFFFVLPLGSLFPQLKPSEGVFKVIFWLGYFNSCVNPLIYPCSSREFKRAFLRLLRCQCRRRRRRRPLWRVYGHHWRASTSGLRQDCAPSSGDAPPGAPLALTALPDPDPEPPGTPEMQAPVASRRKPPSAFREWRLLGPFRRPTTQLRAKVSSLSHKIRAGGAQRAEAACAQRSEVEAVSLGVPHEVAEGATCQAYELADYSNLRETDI

[2] = biological target: T2, Alpha-2C adrenergic receptor (Homo sapiens, UniProt P18825); test: DRUGMATRIX: Adrenergic Alpha-2C radioligand binding (ligand: [3H] MK-912); type: cell membranes, Sf9, Membrane; settings: for IC50 / Ki: sf9
T2 sequence (P18825 whole entry): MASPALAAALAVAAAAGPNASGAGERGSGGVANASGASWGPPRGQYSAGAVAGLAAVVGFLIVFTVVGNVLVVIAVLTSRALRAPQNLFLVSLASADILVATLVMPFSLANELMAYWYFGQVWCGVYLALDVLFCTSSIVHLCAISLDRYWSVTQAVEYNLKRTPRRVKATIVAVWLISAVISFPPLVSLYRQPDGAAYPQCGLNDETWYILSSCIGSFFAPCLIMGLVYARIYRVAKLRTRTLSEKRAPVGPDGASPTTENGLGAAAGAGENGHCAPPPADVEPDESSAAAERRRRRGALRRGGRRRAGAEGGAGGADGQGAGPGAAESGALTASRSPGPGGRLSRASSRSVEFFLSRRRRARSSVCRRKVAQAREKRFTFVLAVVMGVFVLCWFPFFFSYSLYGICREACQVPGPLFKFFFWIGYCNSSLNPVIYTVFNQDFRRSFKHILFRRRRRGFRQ

[3] = biological target: T3, Substance-K receptor (Homo sapiens, UniProt P21452); type: cell membranes, CHO, Membrane; settings: cho; note: in other assays of this panel Not Active means under 50% inhibition at 10 µM
T3 sequence (P21452 whole entry): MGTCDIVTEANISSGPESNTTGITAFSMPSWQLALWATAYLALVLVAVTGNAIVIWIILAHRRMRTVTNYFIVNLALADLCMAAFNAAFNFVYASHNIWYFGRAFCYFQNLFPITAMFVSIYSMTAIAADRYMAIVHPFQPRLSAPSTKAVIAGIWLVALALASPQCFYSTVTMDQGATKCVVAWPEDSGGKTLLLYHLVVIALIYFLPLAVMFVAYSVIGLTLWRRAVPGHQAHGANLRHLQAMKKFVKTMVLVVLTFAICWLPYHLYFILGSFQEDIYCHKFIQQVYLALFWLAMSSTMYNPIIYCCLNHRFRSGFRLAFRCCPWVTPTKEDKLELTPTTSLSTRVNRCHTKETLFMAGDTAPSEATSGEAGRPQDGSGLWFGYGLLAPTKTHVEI

[4] = biological target: Sodium-dependent dopamine transporter (Homo sapiens, UniProt Q01959); test: DRUGMATRIX: Dopamine Transporter radioligand binding (ligand: [125I] RTI-55); type: cell membranes, CHO-K1, Membrane; settings: cho-k1; Not Active = under 50% inhibition at 10 µM
Chain of Sodium-dependent dopamine transporter (Q01959 whole entry): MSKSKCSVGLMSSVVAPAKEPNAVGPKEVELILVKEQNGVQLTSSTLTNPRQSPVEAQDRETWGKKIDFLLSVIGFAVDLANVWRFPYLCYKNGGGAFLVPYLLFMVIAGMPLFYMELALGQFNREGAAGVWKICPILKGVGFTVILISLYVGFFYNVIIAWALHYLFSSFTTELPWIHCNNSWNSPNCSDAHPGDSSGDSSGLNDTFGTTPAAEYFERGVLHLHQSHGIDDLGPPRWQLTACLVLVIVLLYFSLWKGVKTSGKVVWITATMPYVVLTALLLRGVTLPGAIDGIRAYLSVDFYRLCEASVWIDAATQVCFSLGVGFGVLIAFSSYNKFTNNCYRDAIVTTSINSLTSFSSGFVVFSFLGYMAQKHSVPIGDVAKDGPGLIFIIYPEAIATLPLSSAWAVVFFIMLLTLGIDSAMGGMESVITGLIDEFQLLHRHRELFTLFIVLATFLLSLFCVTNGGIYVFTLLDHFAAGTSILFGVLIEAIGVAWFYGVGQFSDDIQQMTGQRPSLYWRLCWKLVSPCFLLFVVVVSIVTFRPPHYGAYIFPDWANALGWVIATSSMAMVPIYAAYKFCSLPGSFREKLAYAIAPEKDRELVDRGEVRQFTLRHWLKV

Row | Compound | IC50 [1] | IC50 [2] | IC50 [3] | IC50 [4] | further results
1 | CC(=O)[C@H]1[C@H](C#N)C[C@H]2[C@@H]3CC=C4C[C@@H](O)CC[C@]4(C)[C@H]3CC[C@@]21C [PREGNENOLONE CARBONITRILE] | Not Active | Not Active | Not Active | Not Active | 
2 | CC(C(=O)O)c1cccc(Oc2ccccc2)c1 (centres undefined) [FENOPROFEN] | Not Active | Not Active | Not Active | Not Active | 
3 | NNc1nncc2ccccc12 [HYDRALAZINE] | Not Active | Not Active | Not Active | Not Active | 
4 | O=C1O[C@H]([C@@H](O)CO)C(O)=C1O [ASCORBIC ACID] | Not Active | Not Active | Not Active | Not Active | 
5 | NC(=O)C[S+]([O-])C(c1ccccc1)c1ccccc1 (centres undefined) [MODAFINIL] | Not Active | Not Active | Not Active |  | 
6 | CCN(CC)CCOCCC1=CCC2CC1C2(C)C (centres undefined) [MYRTECAINE] | Not Active | Not Active | Not Active | Not Active | 
7 | COc1ccc2cc3[n+](cc2c1OC)CCc1cc2c(cc1-3)OCO2.[Cl-] [BERBERINE CHLORIDE] | Not Active |  | Not Active | Not Active | pIC50 ([2]; read-out: IC50): 5.55; pKi ([2]; read-out: Ki): 6.39
8 | GRAMICIDIN | Not Active | Not Active |  | Not Active | Ki [1]: Not Active; Ki [2]: Not Active; pIC50 ([3]; read-out: IC50): 5.34; pKi ([3]; read-out: Ki): 5.82; Ki [4]: Not Active
9 | COc1cc([C@@H]2c3cc4c(cc3[C@@H](O[C@@H]3O[C@@H]5CO[C@@H](C)O[C@H]5[C@H](O)[C@H]3O)[C@H]3COC(=O)[C@H]23)OCO4)cc(OC)c1O [ETOPOSIDE] | Not Active | Not Active | Not Active | Not Active | 
10 | CCC1(C)CC(=O)NC1=O (centres undefined) [ETHOSUXIMIDE] | Not Active | Not Active | Not Active | Not Active | 
11 | Cc1nnc2n1-c1ccc(Cl)cc1C(c1ccccc1)=NC2 [ALPRAZOLAM] | Not Active | Not Active | Not Active | Not Active | 
12 | CC(C)=CCC/C(C)=C/CO [GERANIOL] | Not Active | Not Active | Not Active | Not Active | 
13 | COc1ccc(C(=O)N2CCCC2=O)cc1 | Not Active | Not Active | Not Active | Not Active | 
14 | GENTAMICIN | Not Active | Not Active | Not Active | Not Active | Ki [1]: Not Active; Ki [2]: Not Active; Ki [3]: Not Active; Ki [4]: Not Active
15 | CC(C)NNC(=O)c1ccncc1 [IPRONIAZID] | Not Active | Not Active | Not Active | Not Active | 
16 | CCCNCC(O)COc1ccccc1C(=O)CCc1ccccc1 (centres undefined) [PROPAFENONE] | Not Active | Not Active | Not Active |  | 
17 | O=c1cc(N2CCOCC2)oc2c(-c3ccccc3)cccc12 [LY-294002] | Not Active | Not Active | Not Active | Not Active | 
18 | NCCCC(O)(P(=O)(O)O)P(=O)(O)O [ALENDRONIC ACID] | Not Active | Not Active | Not Active | Not Active | 
19 | Nc1ccc2c3c(cccc13)C(=O)NC2=O | Not Active | Not Active | Not Active | Not Active | 
20 | COc1cc(N)c(Cl)cc1C(=O)NC1CCN(CCCOc2ccc(F)cc2)CC1OC (centres undefined) [CISAPRIDE] |  |  | Not Active | Not Active | pIC50 ([1]; read-out: IC50): 6.72; pKi ([1]; read-out: Ki): 7.03
21 | COc1cc2nc(N3CCN(C(=O)c4ccco4)CC3)nc(N)c2cc1OC [PRAZOSIN] |  |  | Not Active | Not Active | 
